The values below come from PubChem BioAssay (NCI).

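Tested at 5 concentrations; 48 h exposure; 96-well plates; endpoints linearly interpolated, else capped at highest concentration. GI50 marks 50% less growth. At the TGI there is no net growth.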

Test systems include A549 NSCLC; EKVX NSCLC; HCC-2998 colon; HCT-15 colon; HT29 colon; RPMI-8226 leukemia; SF-295 CNS; SR leukemia; TK-10 renal; IGROV1 ovarian.
Common to all, as to experiment: NCI-60 cell line screen, 48 h

As to `COC1OC(CBr)C(OC(=O)c2ccccc2)C(OS(=O)(=O)c2ccc(C)cc2)C1Br` (configuration not stated), the TGI with A549 NSCLC, in the experiment with EKVX NSCLC, with HCC-2998 colon, in the experiment with HCT-15 colon, in the experiment on HT29 colon and with RPMI-8226 leukemia was more than 100 µM in each case. The TGI in the experiment on SF-295 CNS, in the experiment on SR leukemia and in the experiment on TK-10 renal was more than 100 µM each time.

On to `O=C1c2cccnc2C(=O)c2c1c(C(=O)NCCn1ccnc1)c1ccccn21`, for which the GI50 in the experiment with A549 NSCLC is 1.6 µM; with EKVX NSCLC, 4.54 µM; in the experiment on HCC-2998 colon, 2.23 µM; in the experiment on HCT-15 colon, 3.31 µM; in the experiment on HT29 colon, 2.53 µM; in the experiment with IGROV1 ovarian it was 3.27 µM. Also, the GI50 in the experiment on RPMI-8226 leukemia was 5.95 µM; in the experiment on SF-295 CNS it was 2.66 µM; in the experiment with SR leukemia, 2.2 µM. The TGI with A549 NSCLC amounted to 6.82 µM; in the experiment with EKVX NSCLC, 18.6 µM; in the experiment with HCC-2998 colon it was 9.82 µM; in the experiment with HCT-15 colon it was 15.1 µM; with HT29 colon, 9.2 µM; in the experiment with IGROV1 ovarian, 14.2 µM. Besides, the figures for the TGI in the experiment on RPMI-8226 leukemia, in the experiment on SF-295 CNS and in the experiment with SR leukemia were 88.4 µM, 14 µM and more than 100 µM, respectively.

`O=C(N/C(=C\c1ccccc1Cl)c1nc2ccccc2[nH]1)c1ccccc1`: the TGI in the experiment on A549 NSCLC is more than 100 µM; with EKVX NSCLC, 88 µM; with HCC-2998 colon, 91 µM; in the experiment with HCT-15 colon it was more than 100 µM; in the experiment on HT29 colon, 87.2 µM; in the experiment on IGROV1 ovarian, more than 100 µM. The values for the TGI in the experiment with SF-295 CNS, in the experiment with SR leukemia and with TK-10 renal were 43.4 µM, 79.3 µM and more than 100 µM, respectively.

Regarding `COc1cccc(C2=C(c3cn(C)c4cc(F)ccc34)C(=O)NC2=O)c1`, the GI50 in the experiment with A549 NSCLC is more than 17.4 µM; in the experiment on HCC-2998 colon, more than 25 µM; in the experiment on HCT-15 colon, 12.7 µM; with HT29 colon, 8.35 µM; in the experiment on IGROV1 ovarian, more than 25 µM; in the experiment with RPMI-8226 leukemia, more than 17.4 µM. For the same compound, the GI50 in the experiment with SF-295 CNS was more than 18.3 µM; in the experiment on SR leukemia it was 6.72 µM; in the experiment on TK-10 renal, more than 16.9 µM. Besides, the TGI in the experiment with A549 NSCLC, with HCC-2998 colon, in the experiment on HCT-15 colon, with HT29 colon, in the experiment with IGROV1 ovarian and with RPMI-8226 leukemia was more than 25 µM in each case. The TGI in the experiment on SF-295 CNS, with SR leukemia and in the experiment on TK-10 renal was more than 25 µM in each case.

With `CN(NC1OC(CO)C(O)C(O)C1O)c1ccccc1` (configuration not stated), the TGI in the experiment with A549 NSCLC, with HCC-2998 colon, with HCT-15 colon, in the experiment with HT29 colon, in the experiment on IGROV1 ovarian and with RPMI-8226 leukemia was more than 100 µM throughout. In addition, the TGI in the experiment on SF-295 CNS, in the experiment on SR leukemia and in the experiment with TK-10 renal was more than 100 µM throughout.

For `OCc1ccc(N2CCc3cc(F)ccc3C2)cc1Cl`, the GI50 in the experiment on A549 NSCLC was 0.389 µM; in the experiment with HCC-2998 colon, 1.58 µM; in the experiment with HCT-15 colon it was 3.98 µM; in the experiment with HT29 colon it was 0.167 µM; in the experiment with IGROV1 ovarian, 0.017 µM; with RPMI-8226 leukemia it was 0.244 µM. Also, the GI50 in the experiment on SF-295 CNS was 0.0449 µM; in the experiment on SR leukemia, 3.29 µM. The TGI in the experiment with A549 NSCLC is 14.5 µM; in the experiment on HCC-2998 colon it was 12.8 µM; with HCT-15 colon, 21.2 µM; with HT29 colon it was 14.1 µM; in the experiment with IGROV1 ovarian, 0.0941 µM; in the experiment with RPMI-8226 leukemia, 22.2 µM. The TGI in the experiment on SF-295 CNS was 13.9 µM; with SR leukemia, 24 µM; in the experiment on TK-10 renal, 0.0416 µM.

Turning to `CC(c1ccccc1)[C@@H](C(=O)Nc1ccc(I)cc1F)N1C(=O)N[C@H](c2ccc(OC[C@H](O)CO)cc2)C1=O` (some centres not stated), the GI50 in the experiment on A549 NSCLC was more than 14.3 µM; in the experiment on HCC-2998 colon it was 0.445 µM; in the experiment with HCT-15 colon, 11.4 µM; in the experiment on HT29 colon it was 0.0683 µM; with IGROV1 ovarian, 2.04 µM; in the experiment with RPMI-8226 leukemia, 11.9 µM. Besides, the figures for the GI50 in the experiment on SF-295 CNS, in the experiment on SR leukemia and with TK-10 renal were more than 25 µM, more than 20.5 µM and 4.86 µM, respectively. Further, the TGI in the experiment on A549 NSCLC, with HCC-2998 colon, with HCT-15 colon, in the experiment with HT29 colon, with IGROV1 ovarian and in the experiment with RPMI-8226 leukemia was more than 25 µM throughout. Besides, the TGI with SF-295 CNS, with SR leukemia and in the experiment with TK-10 renal was more than 25 µM in each case.

Consider `NC1=NC(=O)/C(=C/c2ccc3ncccc3c2)S1`, for which the GI50 with A549 NSCLC, in the experiment on HCC-2998 colon, in the experiment on HCT-15 colon, with HT29 colon, in the experiment with IGROV1 ovarian and in the experiment on RPMI-8226 leukemia was more than 25 µM each time. The GI50 was more than 25 µM in the experiment with SF-295 CNS, 7.11 µM in the experiment on SR leukemia and more than 25 µM with TK-10 renal. In addition, the TGI in the experiment on A549 NSCLC, in the experiment with HCC-2998 colon, with HCT-15 colon, in the experiment with HT29 colon, in the experiment with IGROV1 ovarian and in the experiment with RPMI-8226 leukemia was more than 25 µM throughout. The TGI in the experiment on SF-295 CNS, in the experiment on SR leukemia and in the experiment with TK-10 renal was more than 25 µM in each case.

For `Clc1ccc(OCc2nnc3n2N=C(c2ccc(Br)cc2)CS3)cc1`, the TGI in the experiment on A549 NSCLC was more than 100 µM; in the experiment with HCC-2998 colon, more than 100 µM; in the experiment on HCT-15 colon it was more than 100 µM; in the experiment with HT29 colon it was more than 100 µM; in the experiment on RPMI-8226 leukemia, more than 100 µM; in the experiment on SF-295 CNS, 37.7 µM. Moreover, the results for the TGI in the experiment with SR leukemia and with TK-10 renal were more than 100 µM and 35.6 µM, respectively.

As to `COc1ccc(C(=O)O[C@H]2[C@H](O[C@H]3[C@@H](O)COC(O[C@H]4C[C@H]5[C@@H]6CC=C7C[C@@H](O)CC[C@]7(C)[C@H]6CC[C@]5(C)[C@H]4[C@H](C)C(=O)CCC(C)C)[C@@H]3OC(C)=O)OC[C@@H](O)[C@@H]2O)c(C)c1` (some centres not stated), the GI50 in the experiment with A549 NSCLC was less than 0.01 µM; in the experiment on EKVX NSCLC it was 1.26 µM; with HCC-2998 colon, 4.1 µM; in the experiment on HCT-15 colon, 0.0332 µM; with HT29 colon it was 0.0712 µM; with IGROV1 ovarian it was 0.0723 µM. Besides, the GI50 with SF-295 CNS was less than 0.01 µM; in the experiment with SR leukemia, less than 0.01 µM; in the experiment with TK-10 renal, 0.27 µM. Also, the TGI was more than 100 µM in the experiment with A549 NSCLC; 26.9 µM in the experiment on EKVX NSCLC; 25.2 µM in the experiment on HCC-2998 colon; 2.05 µM in the experiment with HCT-15 colon; 21.6 µM in the experiment on HT29 colon; 48.9 µM in the experiment with IGROV1 ovarian. The TGI in the experiment on SF-295 CNS was less than 0.01 µM; in the experiment on SR leukemia, more than 100 µM; in the experiment with TK-10 renal it was 34.8 µM.
